Data as given in patent US11857644B2, “Multi-signal fluorescent probe for early diagnosis of tumors, and preparation and use thereof” (Hunan Cancer Hospital, priority 2022, dated 2024).

Experiments:
[1] = Fluorescence response selectivity against other species; conditions: OH, t-BuO, 1O2, NO, GSH, Cys, Hcy, SO2, NAC, H2S, halides, amino acids, NaHS, NaHSO3, EtSH, PhSH, n-Butylamine, aniline
Experimental: Regarding a method for detecting ONOO^− and Na2S2 in cells, unless otherwise specified, a probe molecule is dissolved at room temperature for analytical detection, where a volume ratio of an organic phase to an aqueous phase is 5:5. The organic phase is acetonitrile (CH3CN), and the aqueous phase is formed by PBS (pH=7.4) and an aqueous solution of the analyte.
The multi-signal fluorescent probe for reactive oxygen was dissolved in a solution, in which a volume ratio of […] to the aqueous phase was 5:5. The multi-signal fluorescent probe emitted 492 nm green light under 380 nm excitation wavelength after reacted with ONOO^−, and emitted 548 nm yellow light under 410 nm excitation wavelength after reacted with Na2S2. Accordingly, a specific analyte can be detected by the specific excitation and fluorescence emission signal. The ONOO^− and Na2S2 can be distinguished by using different excitation wavelengths and fluorescence emission signals. […] The LOD for ONOO^− is 42.12 nM, and the LOD for Na2S2 is 38.45 nM. In summary, the multi-signal fluorescent probe can realize the high-sensitivity discrimination and detection of ONOO^− and Na2S2.

[2] = Fluorescence detection of Na2S2 by the probe (limit of detection); conditions: organic phase:aqueous phase (PBS) 5:5, room temperature
Experimental: (§1) The multi-signal fluorescent probe was dissolved with dimethyl sulfoxide (DMSO) to obtain a 1 mM probe solution. A 1 mM ONOO^− aqueous solution and a 1 mM Na2S2 aqueous solution were prepared.
(§2) 20 μL of the 1 mM probe solution, 980 μL of analytically pure CH3CN, the required amount of the 1 mM ONOO^− or Na2S2 aqueous solution and the required amount of phosphate buffered saline (PBS) were added into a 2 mL sample tube. A volume ratio of an organic phase to an aqueous phase was kept at 5:5 for all tests (a total volume of each test sample was 2 mL).
L of the 1 mM probe solution, 980 μL of analytically pure CH3CN, 20 μL of the 1 mM ONOO^− aqueous solution and 980 μL of PBS were added into a 2 mL sample tube. […] Then, the fluorescence emission intensity of the reaction mixture could be measured under the 350 nm excitation wavelength. […] Fluorescence spectra of the multi-signal fluorescent probe in the detection of peroxynitrite and sodium disulfide were shown in FIG. 2. […]
The multi-signal fluorescent probe for reactive oxygen was dissolved in a solution, in which a volume ratio of DMSO to the aqueous phase was 5:5. […] Accordingly, a specific analyte can be detected by the specific excitation and fluorescence emission signal. The ONOO^− and Na2S2 can be distinguished by using different excitation wavelengths and fluorescence emission signals. […]

[3] = Fluorescence detection of ONOO^− by the probe (limit of detection); conditions: organic phase:aqueous phase (PBS) 5:5, room temperature, 15 min
Experimental: as §1, §2
For example, when it was required to explore the fluorescence intensity of the multi-signal fluorescent probe after reacted with […] ONOO^−, the experiment was formulated as follows.
L of the 1 mM probe solution, 980 μL of analytically pure CH3CN, 20 μL of the 1 mM ONOO^− aqueous solution and 980 μL of PBS were added into a 2 mL sample tube. The reaction mixture was mixed evenly under shaking at room temperature for 15 min. Then, the fluorescence emission intensity of the reaction mixture could be measured under the 350 nm excitation wavelength. Other steps were performed as above. The limit of detection (LOD) for ONOO^− was 42.12 nM, and the LOD for Na2S2 was 38.45 nM. Fluorescence spectra of the multi-signal fluorescent probe in the detection of peroxynitrite and sodium disulfide were shown in FIG. 2. […]

For `CCN1c2ccccc2Sc2cc3c(Cl)cc(=O)oc3cc21` [multi-signal fluorescent probe, 4-chloro-11-ethylpyrano[2,3-b]phenothiazin-2(11H)-one], the “fluorescence response to interfering species” value [1] was “no significant response”, the “LOD for Na2S2” value [2] was 38.45 nM and the “limit of detection (LOD) for ONOO^−” value [3] was 42.12 nM.
